Measurements as given in patent publication US10301267B2, “Compounds” (AstraZeneca AB, priority 2006, dated 2019).
Structures can show the parent of a compound that is named as a salt.

molecular target: FGFR1 active kinase (Homo sapiens, UniProt P11362); experiment: FGFR Kinase assay - Caliper; type: biochemical; details: FGFR1 […], 408 uM ATP; mean of n as printed; read-out: FGFR Kinase assay - Caliper, IC50; further: 408 µM ATP
Experimental: FGFR Kinase Assay—Caliper
To determine inhibition of FGFR activity, kinase assays were conducted using Caliper technology.
Kinase activity assays were performed in Greiner 384-well low volume plates, with a total reaction volume of 12 ul per well. Final concentration of FGFR1 active kinase in each reaction well was 7.2 nM. The substrate for each assay was a custom peptide with fluorescent tag (13 amino acids in length, […] with the fluorescene tag on the first K).
Compounds were serially diluted in 5% (v/v) DMSO, before being added to assay plates. The Enzyme (at 7.2 nM [final]) and Substrate (at 3.6 uM [final]) were added separately to the compound plates, in reaction buffer [comprising: 50 mM MOPS (Sigma, Catalogue No. M1254)—pH 6.5, 0.004% Triton (Sigma, Catalogue No. X-100), 2.4 mM DTT, 12 mM MgCl2, 408 uM ATP] resulting in a final DMSO concentration in the reaction mix of 0.8%.
Assay plates were incubated at room temperature for 1.5 h, before the reaction was stopped with the addition of buffer [comprising: 100 mM HEPES—pH7.5, 0.033% Brij-35 (Sigma Catalogue No. B4184), 0.22% Caliper Coating Reagent #3 (Caliper Life Sciences Catalogue No. 760050), 88 mM EDTA, 5% DMSO]. Stopped assay plates were then read using the Caliper LabChip® LC3000 (which uses microfludics to measure a shift in mobility between fluorescent labelled peptide and the FGFR1 kinase—phosphorylated form of this peptide).
In the assay, compounds were tested at a range of concentrations.
Percentage inhibition at 1 uM, as expressed herein, is a calculated value based on the curve fit that was generated experimentally. From the fitted curve plot, the effect of compound at a concentration of 1 uM was calculated as a percentage inhibition. The IC50 is the concentration of compound, which inhibits FGFR1 kinase activity by 50% in the context of this assay.

FGFR1 active kinase, sequence (P11362 22-822): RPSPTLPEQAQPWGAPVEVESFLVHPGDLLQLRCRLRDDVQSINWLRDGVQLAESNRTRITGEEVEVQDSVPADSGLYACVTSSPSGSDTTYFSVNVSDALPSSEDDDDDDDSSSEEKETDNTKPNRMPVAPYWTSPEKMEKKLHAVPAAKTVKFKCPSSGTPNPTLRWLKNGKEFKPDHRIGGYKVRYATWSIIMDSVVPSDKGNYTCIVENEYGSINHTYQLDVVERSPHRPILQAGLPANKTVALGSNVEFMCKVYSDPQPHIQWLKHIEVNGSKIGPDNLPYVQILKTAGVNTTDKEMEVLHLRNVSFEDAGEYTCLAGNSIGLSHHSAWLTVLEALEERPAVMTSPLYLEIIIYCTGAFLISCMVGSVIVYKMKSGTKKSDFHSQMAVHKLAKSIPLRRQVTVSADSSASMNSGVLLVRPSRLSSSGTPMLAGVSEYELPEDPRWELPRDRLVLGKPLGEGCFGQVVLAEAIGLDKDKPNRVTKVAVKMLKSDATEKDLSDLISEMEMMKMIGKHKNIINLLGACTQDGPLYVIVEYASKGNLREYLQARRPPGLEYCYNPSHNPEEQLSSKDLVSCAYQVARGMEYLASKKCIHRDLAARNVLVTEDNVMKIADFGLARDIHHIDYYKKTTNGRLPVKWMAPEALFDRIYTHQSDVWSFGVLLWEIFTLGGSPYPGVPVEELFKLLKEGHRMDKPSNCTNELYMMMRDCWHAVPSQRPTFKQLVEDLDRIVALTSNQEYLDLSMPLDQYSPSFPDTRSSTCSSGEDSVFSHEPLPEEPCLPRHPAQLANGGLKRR

Question: COc1cccc(CCc2cc(NC(=O)c3ccc(-n4cncn4)cc3)[nH]n2)c1 [Example 36, N-[5-[2-(3-Methoxyphenyl)ethyl]-2H-pyrazol-3-yl]-4-(1,2,4-triazol-1-yl)benzamide] was tested. Which IC50 did it give?
Answer: 660 nM

Question: COc1cc(CCc2cc(NC(=O)c3ccc(CN4CCCC(F)C4)cc3)n[nH]2)cc(OC)c1 (stereo not shown) [Example 53, N-[5-[2-(3,5-Dimethoxyphenyl)ethyl]-1H-pyrazol-3-yl]-4-[(3-fluoro-1-piperidyl)methyl]benzamide] was tested. Which IC50 did it give?
Answer: 90 nM

Question: For COc1cc(CCc2cc(NC(=O)c3ccc(N4CCN(C)C(C)C4)cc3)n[nH]2)cc(OC)c1 (stereo not shown) [Example 81, N-[5-[2-(3,5-Dimethoxyphenyl)ethyl]-1H-pyrazol-3-yl]-4-(3,4-dimethylpiperazin-1-yl)benzamide], which IC50 is on record?
Answer: 40 nM

Question: With CN(C)Cc1ccc(CCc2cc(NC(=O)c3ccc(N4CCN(C)CC4)cc3)n[nH]2)o1 [Example 76, N-[5-[2-[5-(Dimethylaminomethyl)-2-furyl]ethyl]-1H-pyrazol-3-yl]-4-(4-methylpiperazin-1-yl)benzamide] as the molecule, how does the IC50 read?
Answer: 340 nM

Question: How did the IC50 turn out when COc1cccc(CCc2cc(NC(=O)c3ccc(-n4cccn4)cc3)[nH]n2)c1 [Example 25, N-[5-[2-(3-Methoxyphenyl)ethyl]-2H-pyrazol-3-yl]-4-pyrazol-1-yl-benzamide] was run?
Answer: 940 nM

Question: How did the IC50 turn out when COc1cc(CCc2cc(NC(=O)c3ccc(N4CCN5CCCCC5C4)cc3)[nH]n2)cc(OC)c1 (stereo not shown) [Example 94, 4-(1,3,4,6,7,8,9,9a-Octahydropyrido[2,1-c]pyrazin-2-yl)-N-[5-[2-(3,5-dimethoxyphenyl)ethyl]-2H-pyrazol-3-yl]benzamide] was run?
Answer: 81 nM

Question: Which IC50 does the source give for COc1cc(CCc2cc(NC(=O)c3ccc(CCN4CCOCC4)cc3)n[nH]2)cc(OC)c1 [Example 56, N-[5-[2-(3,5-Dimethoxyphenyl)ethyl]-1H-pyrazol-3-yl]-4-(2-morpholin-4-ylethyl)benzamide] here?
Answer: 120 nM

Question: For COc1cccc(CCc2cc(NC(=O)c3ccc(-n4cccn4)nc3)[nH]n2)c1 [Example 37, N-[5-[2-(3-Methoxyphenyl)ethyl]-2H-pyrazol-3-yl]-6-pyrazol-1-yl-pyridine-3-carboxamide], which IC50 is on record?
Answer: 69000 nM

Question: For COc1cccc(CCc2cc(NC(=O)c3ccc(Cl)nc3)[nH]n2)c1 [Example 62, 6-Chloro-N-[5-[2-(3-methoxyphenyl)ethyl]-2H-pyrazol-3-yl]pyridine-3-carboxamide], which IC50 is on record?
Answer: 4540 nM

Question: COc1cccc(CCc2cc(NC(=O)c3ccc(CO)cc3)[nH]n2)c1 [Example 28, 4-(Hydroxymethyl)-N-[5-[2-(3-methoxyphenyl)ethyl]-2H-pyrazol-3-yl]benzamide] was tested. Which IC50 did it give?
Answer: 74 nM

Question: With COc1cc(CCc2cc(NC(=O)c3ccc(CN4CCCC(C)(C)C4)cc3)n[nH]2)cc(OC)c1 [Example 50, N-[5-[2-(3,5-Dimethoxyphenyl)ethyl]-1H-pyrazol-3-yl]-4-[(3,3-dimethyl-1-piperidyl)methyl]benzamide] as the molecule, how does the IC50 read?
Answer: 1 nM

Question: With COc1cccc(CCc2cc(NC(=O)c3ccc(-c4cnco4)cc3)[nH]n2)c1 [Example 33, N-[5-[2-(3-Methoxyphenyl)ethyl]-2H-pyrazol-3-yl]-4-(1,3-oxazol-5-yl)benzamide] as the molecule, how does the IC50 read?
Answer: 1200 nM

Question: With COc1cc(CCc2cc(NC(=O)c3ccc(N4CCNCC4)s3)n[nH]2)cc(OC)c1 [Example 60, N-[5-[2-(3,5-Dimethoxyphenyl)ethyl]-1H-pyrazol-3-yl]-5-piperazin-1-yl-thiophene-2-carboxamide (2,2,2-trifluoroacetic Acid Salt)] as the molecule, how does the IC50 read?
Answer: 22 nM

Question: How did the IC50 turn out when COc1cc(CCc2cc(NC(=O)c3ccc(C4CCNCC4)cc3)n[nH]2)cc(OC)c1 [Example 58, N-[5-[2-(3,5-Dimethoxyphenyl)ethyl]-1H-pyrazol-3-yl]-4-(4-piperidyl)benzamide] was run?
Answer: 1 nM

Question: With COc1cc(CCc2cc(NC(=O)c3ccc(N4CCN5CCCC5C4)cc3)[nH]n2)cc(OC)c1 (stereo not shown) [Example 93, 4-(3,4,6,7,8,8a-Hexahydro-1H-pyrrolo[2,1-c]pyrazin-2-yl)-N-[5-[2-(3,5-dimethoxyphenyl)ethyl]-2H-pyrazol-3-yl]benzamide] as the molecule, how does the IC50 read?
Answer: 37 nM

Question: Which IC50 does the source give for COc1cccc(CCc2cc(NC(=O)c3ccc(-n4cnnn4)cc3)[nH]n2)c1 [Example 34, N-[5-[2-(3-Methoxyphenyl)ethyl]-2H-pyrazol-3-yl]-4-(tetrazol-1-yl)benzamide] here?
Answer: 1000 nM

Question: How did the IC50 turn out when COc1cc(CCc2cc(NC(=O)c3ccc(N4CCCCC4)cc3)n[nH]2)cc(OC)c1 [Example 43, N-[5-[2-(3,5-Dimethoxyphenyl)ethyl]-1H-pyrazol-3-yl]-4-(1-piperidyl)benzamide] was run?
Answer: 438 nM

Question: How did the IC50 turn out when COc1cc(CCc2cc(NC(=O)c3ccc(N4CCNCC4)cc3)n[nH]2)cc(OC)c1 [Example 45, N-[5-[2-(3,5-Dimethoxyphenyl)ethyl]-1H-pyrazol-3-yl]-4-piperazin-1-yl-benzamide] was run?
Answer: 26 nM

Question: How did the IC50 turn out when COc1cccc(CCc2cc(NC(=O)c3ccc(C#N)nc3)[nH]n2)c1 [Example 63, 6-Cyano-N-[5-[2-(3-methoxyphenyl)ethyl]-2H-pyrazol-3-yl]pyridine-3-carboxamide] was run?
Answer: 3770 nM

Question: With COc1cc(CCc2cc(NC(=O)c3ccc(N4CCN(C(C)=O)CC4)cc3)n[nH]2)cc(OC)c1 [Example 90, 4-(4-Acetylpiperazin-1-yl)-N-[5-[2-(3,5-dimethoxyphenyl)ethyl]-1H-pyrazol-3-yl]benzamide] as the molecule, how does the IC50 read?
Answer: 56 nM

Question: Which IC50 does the source give for COc1cc(CCc2cc(NC(=O)c3cccc(OC)c3)n[nH]2)cc(OC)c1 [Example 39, N-[5-[2-(3,5-Dimethoxyphenyl)ethyl]-1H-pyrazol-3-yl]-3-methoxy-benzamide] here?
Answer: 370 nM

Question: Which IC50 does the source give for COc1cc(CCc2cc(NC(=O)c3ccc(N4CCNCC4)nc3)n[nH]2)cc(OC)c1 [Example 46, N-[5-[2-(3,5-Dimethoxyphenyl)ethyl]-1H-pyrazol-3-yl]-6-piperazin-1-yl-pyridine-3-carboxamide] here?
Answer: 40 nM

Question: How did the IC50 turn out when COc1cc(COc2cc(NC(=O)c3ccc(N4CCCNCC4)cc3)n[nH]2)cc(OC)c1 [Example 75, 4-(1,4-Diazepan-1-yl)-N-[5-[(3,5-dimethoxyphenyl)methoxy]-1H-pyrazol-3-yl]benzamide Hydrochloride] was run?
Answer: 8.5 nM

Question: COc1cc(CCc2cc(NC(=O)c3ccccc3OC)n[nH]2)cc(OC)c1 [Example 41, N-[5-[2-(3,5-Dimethoxyphenyl)ethyl]-1H-pyrazol-3-yl]-2-methoxy-benzamide] was tested. Which IC50 did it give?
Answer: 2610 nM

Question: With COc1cccc(CCc2cc(NC(=O)c3ccc(NC=O)cn3)[nH]n2)c1 [Example 29, 5-Formamido-N-[5-[2-(3-methoxyphenyl)ethyl]-2H-pyrazol-3-yl]pyridine-2-carboxamide] as the molecule, how does the IC50 read?
Answer: 870 nM

Question: COc1cc(CCc2cc(NC(=O)c3ccc(N4CCN(C5CCC5)CC4)cc3)n[nH]2)cc(OC)c1 [Example 89, 4-(4-Cyclobutylpiperazin-1-yl)-N-[5-[2-(3,5-dimethoxyphenyl)ethyl]-1H-pyrazol-3-yl]benzamide] was tested. Which IC50 did it give?
Answer: 9 nM

Question: How did the IC50 turn out when COc1cccc(CCc2cc(NC(=O)c3ccc(N4CCOCC4)nc3)[nH]n2)c1 [Example 32, N-[5-[2-(3-Methoxyphenyl)ethyl]-2H-pyrazol-3-yl]-6-morpholin-4-yl-pyridine-3-carboxamide] was run?
Answer: 27 nM

Question: For COc1cc(CCc2cc(NC(=O)c3ccc(N4CCN(CCO)CC4)cc3)n[nH]2)cc(OC)c1 [Example 51, N-[5-[2-(3,5-Dimethoxyphenyl)ethyl]-1H-pyrazol-3-yl]-4-[4-(2-hydroxyethyl)piperazin-1-yl]benzamide], which IC50 is on record?
Answer: 81 nM
